Assay results: ChEMBL document CHEMBL1201862, “PubChem BioAssay data set” (2004)
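Step 1: Grow cells in 96-well plates. Step 2: Expose to compound for 48 hours at 5 concentrations. Step 3: Interpolate endpoints linearly; if unreached, use highest concentration. Here, GI50 denotes the concentration required for 50% inhibition of growth.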 Activity calls are given as the source filed them. No stated cut-off is given here; in the data, active = GI50 up to about 1.1 µM and inactive = higher.

What was measured:
Experiment in all cases: NCI-60 cell line screen, 48 h
SK-OV-3 = test system: SK-OV-3
UACC-257 = test system: UACC-257
IGROV-1 = test system: IGROV-1
HCT-116 = test system: HCT-116
CCRF-CEM = test system: CCRF-CEM
UO-31 = test system: UO-31
SF-295 = test system: SF-295
MDA-N = test system: MDA-N
HT-29 = test system: HT-29
NCI-H23 = test system: NCI-H23
TK-10 = test system: TK-10
ACHN = test system: ACHN
COLO 205 = test system: COLO 205
LOX IMVI = test system: LOX IMVI
MDA-MB-231 = test system: MDA-MB-231
RPMI-8226 = test system: RPMI-8226
MCF7 = test system: MCF7
HOP-62 = test system: HOP-62
SF-539 = test system: SF-539
HOP-92 = test system: HOP-92
HL-60 = test system: HL-60
786-0 = test system: 786-0
HCC 2998 = test system: HCC 2998
HCT-15 = test system: HCT-15
SNB-75 = test system: SNB-75
K562 = test system: K562
SW-620 = test system: SW-620
SNB-19 = test system: SNB-19
NCI/ADR-RES = test system: NCI/ADR-RES
SK-MEL-2 = test system: SK-MEL-2
OVCAR-5 = test system: OVCAR-5
OVCAR-8 = test system: OVCAR-8
MDA-MB-435 = test system: MDA-MB-435
Malme-3M = test system: Malme-3M
NCI-H522 = test system: NCI-H522
M14 = test system: M14
MOLT-4 = test system: MOLT-4
PC-3 = test system: PC-3
CAKI-1 = test system: CAKI-1
SR = test system: SR
A498 = test system: A498
SF-268 = test system: SF-268
SN12C = test system: SN12C
U-251 = test system: U-251
EKVX = test system: EKVX
OVCAR-3 = test system: OVCAR-3
UACC-62 = test system: UACC-62
NCI-H460 = test system: NCI-H460
OVCAR-4 = test system: OVCAR-4
DU-145 = test system: DU-145
SK-MEL-28 = test system: SK-MEL-28
SK-MEL-5 = test system: SK-MEL-5
KM12 = test system: KM12
RXF 393 = test system: RXF 393
NCI-H226 = test system: NCI-H226
A549 = test system: A549
Hs-578T = test system: Hs-578T
T47D = test system: T47D

With CS/C(=N\S(=O)(=O)c1ccc(Cl)cc1)NCCN/C(=N/S(=O)(=O)c1ccc(Cl)cc1)SC the GI50 (SK-OV-3) was 23.6 µM (inactive), the GI50 (UACC-257) was > 100 µM (inactive) and the GI50 (IGROV-1) was > 100 µM (inactive). The GI50 (HCT-116) was > 100 µM (inactive), the GI50 (CCRF-CEM) was > 100 µM (inactive) and the GI50 (UO-31) was > 100 µM (inactive). The GI50 (SF-295) was 61.2 µM (inactive), the GI50 (MDA-N) was > 100 µM (inactive) and the GI50 (HT-29) was > 100 µM (inactive). The GI50 (NCI-H23) was 48 µM (inactive), the GI50 (TK-10) was 31.6 µM (inactive) and the GI50 (ACHN) was > 100 µM (inactive). For the same compound, the GI50 (COLO 205) was > 100 µM (inactive), the GI50 (LOX IMVI) was > 100 µM (inactive) and the GI50 (MDA-MB-231) was > 100 µM (inactive). The GI50 (RPMI-8226) was > 100 µM (inactive), the GI50 (MCF7) was > 100 µM (inactive) and the GI50 (HOP-62) was 20.6 µM (inactive). For the same compound, the GI50 (SF-539) was 61.4 µM (inactive), the GI50 (HOP-92) was 14.2 µM (inactive) and the GI50 (HL-60) was > 100 µM (inactive). For the same compound, the GI50 (786-0) was 24.8 µM (inactive), the GI50 (HCC 2998) was > 100 µM (inactive) and the GI50 (HCT-15) was greater than 100 µM. For the same compound, the GI50 (SNB-75) was 24.4 µM (inactive), the GI50 (K562) was > 100 µM (inactive) and the GI50 (SW-620) was > 100 µM (inactive). For the same compound, the GI50 (SNB-19) was 35.7 µM (inactive), the GI50 (NCI/ADR-RES) was > 100 µM (inactive) and the GI50 (SK-MEL-2) was 30.1 µM (inactive). For the same compound, the GI50 (OVCAR-5) was > 100 µM (inactive), the GI50 (OVCAR-8) was 19.9 µM (inactive) and the GI50 (MDA-MB-435) was > 100 µM (inactive). For the same compound, the GI50 (Malme-3M) was 49.8 µM (inactive), the GI50 (NCI-H522) was 2.58 µM (inactive) and the GI50 (M14) was > 100 µM (inactive). The GI50 (MOLT-4) was > 100 µM (inactive), the GI50 (PC-3) was 8.43 µM (inactive) and the GI50 (CAKI-1) was > 100 µM (inactive). The GI50 (SR) was > 100 µM (inactive), the GI50 (A498) was 37.5 µM (inactive) and the GI50 (SF-268) was 21.3 µM (inactive). For the same compound, the GI50 (SN12C) was > 100 µM (inactive), the GI50 (U-251) was 18 µM (inactive) and the GI50 (EKVX) was 18.7 µM (inactive). For the same compound, the GI50 (OVCAR-3) was 32 µM (inactive), the GI50 (UACC-62) was > 100 µM (inactive) and the GI50 (NCI-H460) was > 100 µM (inactive). For the same compound, the GI50 (OVCAR-4) was 2.3 µM (inactive), the GI50 (DU-145) was > 100 µM (inactive) and the GI50 (SK-MEL-28) was > 100 µM (inactive).

With CC(C)C1=CC23CCC4C(C)(C(=O)O)CCCC4(C)C2CC1C1C(=O)N(c2ccc(N4C(=O)C5C6CC7C8(C)CCCC(C)(C(=O)O)C8CCC7(C=C6C(C)C)C5C4=O)cc2)C(=O)C13 (centres undefined) the GI50 (HCT-116) was 3.38 µM (inactive), the GI50 (CCRF-CEM) was 3.85 µM (inactive) and the GI50 (UO-31) was 18.5 µM (inactive). For the same compound, the GI50 (SK-MEL-5) was 3.44 µM (inactive), the GI50 (MDA-N) was 4.43 µM (inactive) and the GI50 (HT-29) was 2.45 µM (inactive). For the same compound, the GI50 (NCI-H23) was 3.79 µM (inactive), the GI50 (TK-10) was 16.4 µM (inactive) and the GI50 (ACHN) was 5.9 µM (inactive). The GI50 (KM12) was 4.17 µM (inactive), the GI50 (COLO 205) was 3.47 µM (inactive) and the GI50 (MDA-MB-231) was 4.58 µM (inactive). The GI50 (RPMI-8226) was 3.96 µM (inactive), the GI50 (MCF7) was 3.33 µM (inactive) and the GI50 (RXF 393) was 11.7 µM (inactive). The GI50 (HOP-62) was 5.12 µM (inactive), the GI50 (SF-539) was 4.3 µM (inactive) and the GI50 (HOP-92) was 14.7 µM (inactive). The GI50 (HL-60) was 3.4 µM (inactive), the GI50 (786-0) was 13.1 µM (inactive) and the GI50 (NCI-H226) was 3.45 µM (inactive). The GI50 (HCC 2998) was 4.41 µM (inactive), the GI50 (A549) was 6.1 µM (inactive) and the GI50 (HCT-15) was 12.6 µM. For the same compound, the GI50 (K562) was 4.35 µM (inactive), the GI50 (SW-620) was 8.41 µM (inactive) and the GI50 (SNB-19) was 4.75 µM (inactive). For the same compound, the GI50 (SK-MEL-2) was 13.5 µM (inactive), the GI50 (OVCAR-5) was 10.3 µM (inactive) and the GI50 (OVCAR-8) was 4.89 µM (inactive). The GI50 (MDA-MB-435) was 3.68 µM (inactive), the GI50 (Malme-3M) was 14.1 µM (inactive) and the GI50 (NCI-H522) was 4.98 µM (inactive). The GI50 (M14) was 4.16 µM (inactive), the GI50 (Hs-578T) was 6.22 µM (inactive) and the GI50 (MOLT-4) was 3.51 µM (inactive). For the same compound, the GI50 (PC-3) was 3.2 µM (inactive), the GI50 (SR) was 3.59 µM (inactive) and the GI50 (A498) was 11.2 µM (inactive). The GI50 (SF-268) was 4.7 µM (inactive), the GI50 (SN12C) was 4.46 µM (inactive) and the GI50 (U-251) was 4.28 µM (inactive). For the same compound, the GI50 (T47D) was 12.1 µM (inactive), the GI50 (EKVX) was 4.09 µM (inactive) and the GI50 (OVCAR-3) was 5.71 µM (inactive). For the same compound, the GI50 (OVCAR-4) was 10.4 µM (inactive), the GI50 (DU-145) was 4.71 µM (inactive) and the GI50 (SK-MEL-28) was 4.49 µM (inactive).
